{"source": "paper PMC8694812", "about": "(RSC Advances, 2021)", "key": {"A549 cells": {"tested_on": "A549 cells", "assay": "MTT cell viability of A549 cells, dark and 660 nm LED irradiation", "type": "cell-based, human", "settings": "24 hours, 660 nm 30 min"}, "BEAS-2B cells": {"tested_on": "BEAS-2B cells", "assay": "MTT cell viability of BEAS-2B cells, dark and 660 nm LED irradiation", "type": "cell-based, human", "settings": "Eu bis up to 50 μM, Lu bis above 2.5 μM, ZnPc 0.25 μM or above"}, "[1]": {"settings": "ZnPc standard, cited from earlier work"}, "[2]": {"settings": "ZnPc standard, cited from earlier work", "remark": "listed apart in the source"}, "[3]": {"settings": "DMSO, ZnPc standard; cited from earlier work"}}}
{"compound": "[Zn+2].c1ccc2c(c1)-c1nc-2nc2[n-]c(nc3nc([n-]c4nc(n1)-c1ccccc1-4)-c1ccccc1-3)c1ccccc21", "note": "[ZnPc, unsubstituted zinc(II)phthalocyanine]", "values": [{"measurement": "effect of light irradiation on viability/toxicity", "setting": "A549 cells", "result": "high toxicity in the sub-μM range"}, {"measurement": "effect of light irradiation on viability", "setting": "BEAS-2B cells", "result": "reduced the viability"}, {"measurement": "Direct ΦΔ in THF", "setting": "[1]; fraction", "result": "0.530 (ref. [66])"}, {"measurement": "ΦΔ (%) Direct in THF", "setting": "[1]; singlet oxygen quantum yield, THF", "result": 53, "unit": "%"}, {"measurement": "Indirect ΦΔ in DMSO", "setting": "[2]; fraction", "result": "0.670 (ref. [65])"}, {"measurement": "ΦΔ (%) Indirect in DMSO", "setting": "[2]; singlet oxygen quantum yield, DMSO", "result": 67, "unit": "%"}, {"measurement": "ΦF (fluorescence quantum yield)", "setting": "[3]", "result": "0.180 (ref. [64])"}]}
